Reference: PubChem BioAssay (NCI)
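Cultured in 96-well plates, cells were exposed to test compound for 48 hours across five concentrations. At the TGI there is no net growth.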

Experiments:
Assay in all cases: inhibition of tumour cell growth, NCI panel, 48 h
[1] = tested on: HCT-15 colon
[2] = tested on: M14 melanoma
[3] = tested on: PC-3 prostate
[4] = tested on: UACC-257 melanoma
[5] = tested on: OVCAR-4 ovarian
[6] = tested on: SF-268 CNS
[7] = tested on: MDA-MB-231 breast
[8] = tested on: EKVX NSCLC
[9] = tested on: SF-539 CNS
[10] = tested on: MDA-MB-435
[11] = tested on: HOP-62 NSCLC
[12] = tested on: HT29 colon
[13] = tested on: ACHN renal
[14] = tested on: A498 renal
[15] = tested on: SW-620 colon
[16] = tested on: HCT-116 colon
[17] = tested on: NCI/ADR-RES ovarian
[18] = tested on: IGROV1 ovarian
[19] = tested on: CAKI-1 renal

Structure (SMILES) | TGI [1] | TGI [2] | TGI [3] | TGI [4] | TGI [5] | TGI [6] | TGI [7] | TGI [8] | TGI [9] | TGI [10] | TGI [11] | TGI [12] | TGI [13] | TGI [14] | TGI [15] | TGI [16] | TGI [17] | TGI [18] | TGI [19]
COC(=O)c1ccccc1NC(=NC1CCCCCC1)NS(=O)(=O)c1ccc(C)cc1 | > 100 µM | > 100 µM | > 100 µM | > 100 µM | > 100 µM | > 100 µM | > 100 µM | > 100 µM | > 100 µM | > 100 µM | > 100 µM | > 100 µM | > 100 µM | > 100 µM | > 100 µM | > 100 µM | > 100 µM | > 100 µM | > 100 µM
N#Cc1ccc(CSC2=C(c3ccc(Cl)cc3)S/C(=C3\SC(SCc4ccc(C#N)cc4)=C(c4ccc(Cl)cc4)S3)S2)cc1 | > 100 µM | > 100 µM | > 100 µM | > 100 µM | > 100 µM | > 100 µM | > 100 µM | > 100 µM | > 100 µM | > 100 µM | > 100 µM | > 100 µM | > 100 µM | > 100 µM | > 100 µM | > 100 µM | > 100 µM | > 100 µM | > 100 µM
C=C1CCCC(C)(C)C1CCC1(C)CCC(C(C)C(=O)OC)OO1 (stereo not given) | > 25 µM | > 25 µM | 7.56 µM | > 25 µM | 17.4 µM | 7.77 µM | > 25 µM | 21.8 µM | > 22.2 µM | 7.59 µM | 4.7 µM | > 25 µM | 2.75 µM | > 15.3 µM | 24.2 µM | > 25 µM | > 18.4 µM | 1.7 µM | 0.749 µM
O[C@H]1[C@H](O)[C@@H](O)[C@@]2(O)CC[C@@H]1N2 | > 100 µM | > 100 µM | > 100 µM | > 100 µM | > 100 µM | > 100 µM | > 100 µM | > 100 µM | > 100 µM | > 100 µM | > 100 µM | > 100 µM | > 100 µM | > 100 µM | > 100 µM | > 100 µM | > 100 µM | > 100 µM | > 100 µM
CC(C)CC(=O)NC(C(=O)NC(C(=O)NC(CC(C)C)C(O)CC(=O)NC(C)C(=O)NC(CC(C)C)C(O)CC(=O)O)C(C)C)C(C)C (stereo not given) | > 100 µM | > 100 µM | > 100 µM | > 100 µM | > 100 µM | > 100 µM | > 100 µM | > 100 µM | > 100 µM | > 100 µM | > 100 µM | > 100 µM | > 100 µM | > 100 µM | > 100 µM | > 100 µM | > 100 µM | > 100 µM | > 100 µM
COc1cc2oc(-c3ccc4c(c3)OCO4)c(OC)c(=O)c2c(OC)c1O | > 100 µM | > 100 µM | > 100 µM | > 100 µM | > 100 µM | > 100 µM | > 100 µM | > 100 µM | > 100 µM | > 100 µM | > 100 µM | > 100 µM | > 100 µM | > 100 µM | > 100 µM | > 100 µM | > 100 µM | > 100 µM | > 100 µM
CCOC(=O)CCSc1nc2ccc(I)cc2c(=O)n1Cc1ccccc1 | > 77.7 µM | > 100 µM | > 100 µM | > 92.2 µM | > 77.1 µM | > 91.2 µM | > 100 µM | 82.4 µM | > 100 µM | > 89 µM | > 75.2 µM | > 100 µM | > 83 µM | > 79.2 µM | > 100 µM | > 74.2 µM | > 60.3 µM | > 100 µM | 9.59 µM
CN(C)CCCNC(=O)CCNC(=O)c1cc(NC(=O)c2cc(NC(=O)c3cc(NC(=O)c4nccn4C)cn3C)cn2C)cn1C | > 100 µM | > 100 µM | > 100 µM | > 100 µM | > 20.3 µM | > 100 µM | > 100 µM | > 100 µM | > 100 µM | > 100 µM | > 100 µM | > 100 µM | > 100 µM | > 100 µM | > 100 µM | > 100 µM | > 100 µM | > 100 µM | > 100 µM
[N-]=[N+]=Nc1c(Cl)c(Cl)nc2ccccc12 | > 100 µM | > 100 µM | > 100 µM | > 100 µM | > 100 µM | > 100 µM | > 100 µM | > 100 µM | > 100 µM | > 100 µM | > 100 µM | > 100 µM | > 100 µM | > 100 µM | > 100 µM | > 100 µM | > 100 µM | > 100 µM | 57.8 µM
CC1=NC2c3c(-c4ccc(Cl)cc4)cn(-c4ccc(C)cc4)c3N=CN2N1 (stereo not given) | > 100 µM | > 100 µM | > 100 µM | > 100 µM | 33.3 µM | > 100 µM | > 100 µM | > 100 µM | > 100 µM | > 100 µM | > 100 µM | > 100 µM | > 100 µM | > 100 µM | > 100 µM | > 100 µM | > 100 µM | > 100 µM | > 100 µM
